In patent publication US9745287B2, “Pyrimidines and use thereof” (Purdue Pharma L.P., priority 2013, dated 2017):
Read-outs that look alike come from different tables or passages of the source.

What was measured:
hNav1.7 = hNav1.7 (Homo sapiens (Human), UniProt Q15858); test: Electrophysiology (EP) assay, whole-cell patch clamp in hNav1.7 expressing HEK-293 cells; assay type: cell-based; conditions: affinity for inactivated state of hNav1.7, HEK-293; read-out: Nav1.7 Activity (μM) EP assay Ki
Method: Cells Manual Electrophysiology: The hNav1.7 expressing HEK-293 cells are plated on 35 mm culture dishes pre-coated with poly-D-lysine in standard DMEM culture media (Mediatech, Inc., Herndon, Va.) and incubated in a 5% CO2 incubator at 37° C. Cultured cells are used approximately 12-48 hours after plating.
Cells Automated Electrophysiology: The hNav1.7 expressing HEK-293 cells are plated on tissue culture flasks in standard DMEM culture media (Mediatech, Inc.) and incubated in a 5% CO2 incubator at 37° C. Cultured cells are used approximately 12-48 hours after plating.
Manual Electrophysiology: On the day of experimentation, the 35 mm dish is placed on the stage of an inverted microscope equipped with a perfusion system that continuously perfuses the culture dish with fresh recording media. A gravity driven superfusion system is used to apply test solutions directly to the cell under evaluation. This “shooter” system consists of an array of glass pipettes connected to a motorized horizontal translator. The outlet of the shooter is positioned approximately 100 μm from the cell of interest.
Whole cell currents are recorded using the whole-cell patch clamp configuration using an Axopatch 200B amplifier (Axon Instruments, Foster City, Calif.), 1322A A/D converter (Axon Instruments) and pClamp software (v. 8; Axon Instruments) and stored on a personal computer. Gigaseals are formed and the whole-cell configuration is established in voltage clamp mode, and membrane currents generated by hNav1.7 channels are recorded. Borosilicate glass pipettes with resistance values between 1.5 and 2.0 MΩ when filled with pipette solution are used and series resistance (<5 MΩ) is compensated by 75-80%. Signals are sampled at 50 kHz and low pass filtered at 3 kHz.
Automated Electrophysiology: On the day of experimentation, cells are prepared by removing media and digesting with appropriate enzymes to suspend cells in external solution.
Whole cell currents are recorded using the whole-cell patch clamp configuration using an Patchliner (Nanion Technologies, Munich Germany), EPC 10 quadro amplifiers (HEKA, Bellmore, N.Y.) and PatchControl HT 10905 (Nanion Technologies) and PatchMaster v2x73 software (HEKA) and stored on a personal computer. Gigaseals are formed and the whole-cell configuration is established in voltage clamp mode, and membrane currents generated by hNav1.7 are recorded. NPC-16 chips have resistance values between 1.0 and 2.0 MΩ when filled with pipette solution and series resistance (<5 MΩ). Signals are sampled at 25 kHz and low pass filtered at 3 kHz.
Voltage protocols Manual Electrophysiology: After establishing the whole-cell configuration in voltage clamp mode, voltage protocols are run to establish the 1) test potential (Vmax), 2) holding potential (Vh), and 3) the conditioning potential for each cell.
After establishing the whole-cell configuration in voltage clamp mode, a standard I-V protocol is run to determine the potential at which the maximal current (Imax) is elicited. This potential is the test potential (Vt). To determine a conditioning potential at which 100% of channels are in the inactivated state, a standard steady-state inactivation (SSIN) protocol is run using a series of fifteen 100 ms-long depolarizing prepulses, incrementing in 10 mV steps, immediately followed by a 5 ms testing pulse to Vmax. This protocol also permits determination of the holding potential at which all channels are in the resting state.
For compounds causing significant retardation of recovery from inactivation, an estimate of the affinity for the inactivated state of the channel (Ki) is generated using the following protocol. From the negative, no residual inactivation, holding potential, the cell is depolarized to the conditioning voltage for 2-5 seconds, returned to the negative holding potential for 10-20 ms to relieve fast inactivation and then depolarized to the test potential for ˜15 ms. […]

human Nav1.7 = human Nav1.7 (Homo sapiens (Human), UniProt Q15858); test: FLIPR or FLIPR TETRA sodium dye assay with KCl and test article pre-incubation; assay type: cell-based
Sequence of human Nav1.7 (Q15858 other isoform, or with tags, fused parts or gaps): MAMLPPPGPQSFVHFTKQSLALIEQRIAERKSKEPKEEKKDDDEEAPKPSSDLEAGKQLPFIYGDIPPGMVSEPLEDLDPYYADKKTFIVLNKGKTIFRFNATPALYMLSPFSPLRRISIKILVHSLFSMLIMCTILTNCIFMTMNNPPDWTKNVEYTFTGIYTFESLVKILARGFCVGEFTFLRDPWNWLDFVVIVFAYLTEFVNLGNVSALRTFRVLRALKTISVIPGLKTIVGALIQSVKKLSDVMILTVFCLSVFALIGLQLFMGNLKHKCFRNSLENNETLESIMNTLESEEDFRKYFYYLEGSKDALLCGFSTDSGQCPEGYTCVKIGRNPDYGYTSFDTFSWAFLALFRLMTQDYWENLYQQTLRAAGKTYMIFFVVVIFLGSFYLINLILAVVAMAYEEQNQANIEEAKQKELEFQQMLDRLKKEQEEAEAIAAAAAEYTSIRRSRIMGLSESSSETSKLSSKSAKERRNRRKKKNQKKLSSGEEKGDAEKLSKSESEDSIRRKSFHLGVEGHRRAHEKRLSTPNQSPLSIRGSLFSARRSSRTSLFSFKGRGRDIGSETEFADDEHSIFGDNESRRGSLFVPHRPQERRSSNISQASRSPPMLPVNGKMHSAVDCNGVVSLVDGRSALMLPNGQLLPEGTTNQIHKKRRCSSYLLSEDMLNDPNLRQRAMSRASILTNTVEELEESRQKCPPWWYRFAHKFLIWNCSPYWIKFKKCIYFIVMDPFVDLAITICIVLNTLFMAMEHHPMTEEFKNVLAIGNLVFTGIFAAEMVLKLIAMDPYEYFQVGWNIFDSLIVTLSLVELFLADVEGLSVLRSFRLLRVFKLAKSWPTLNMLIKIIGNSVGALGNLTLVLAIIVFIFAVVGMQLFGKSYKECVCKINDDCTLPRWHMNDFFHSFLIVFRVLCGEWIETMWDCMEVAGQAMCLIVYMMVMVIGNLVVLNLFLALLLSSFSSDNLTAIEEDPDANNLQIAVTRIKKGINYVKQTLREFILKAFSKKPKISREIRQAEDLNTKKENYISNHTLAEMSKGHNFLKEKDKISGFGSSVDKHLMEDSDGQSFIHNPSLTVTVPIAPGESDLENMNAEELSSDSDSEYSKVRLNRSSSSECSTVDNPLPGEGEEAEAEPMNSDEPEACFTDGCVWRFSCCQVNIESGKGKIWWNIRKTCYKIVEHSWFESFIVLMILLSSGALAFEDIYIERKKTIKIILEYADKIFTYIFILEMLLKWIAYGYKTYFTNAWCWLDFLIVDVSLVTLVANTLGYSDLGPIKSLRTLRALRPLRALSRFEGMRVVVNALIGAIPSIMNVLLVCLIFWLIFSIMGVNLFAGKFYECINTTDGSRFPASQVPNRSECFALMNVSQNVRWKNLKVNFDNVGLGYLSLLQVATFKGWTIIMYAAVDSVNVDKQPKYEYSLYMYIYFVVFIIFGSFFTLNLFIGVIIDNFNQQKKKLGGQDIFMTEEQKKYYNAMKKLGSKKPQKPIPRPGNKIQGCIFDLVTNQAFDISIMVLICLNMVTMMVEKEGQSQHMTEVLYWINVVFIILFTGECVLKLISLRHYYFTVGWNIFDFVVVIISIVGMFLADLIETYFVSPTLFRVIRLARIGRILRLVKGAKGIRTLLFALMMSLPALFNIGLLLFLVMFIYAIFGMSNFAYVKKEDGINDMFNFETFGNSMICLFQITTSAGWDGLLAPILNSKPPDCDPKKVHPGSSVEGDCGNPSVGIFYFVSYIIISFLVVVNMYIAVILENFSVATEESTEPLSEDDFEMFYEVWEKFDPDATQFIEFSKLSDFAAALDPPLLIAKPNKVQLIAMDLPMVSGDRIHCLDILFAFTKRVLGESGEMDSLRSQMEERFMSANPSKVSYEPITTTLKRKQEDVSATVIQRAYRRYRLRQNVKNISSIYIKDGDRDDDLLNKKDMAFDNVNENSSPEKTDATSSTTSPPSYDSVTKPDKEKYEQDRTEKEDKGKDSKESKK

[1] = recombinant human Nav1.7 in HEK293, veratridine + scorpion venom

Sequence of hNav1.7 (Q15858 other isoform, or with tags, fused parts or gaps): as above

Row | SMILES | Ki (hNav1.7) [µM] | IC50 (human Nav1.7; [1]) [µM] | IC50 (human Nav1.7) [µM]
1 | NC(=O)c1cc(CN[C@H]2CCNC2=O)nc(-c2ccc(Oc3ccc(C4CC4)cn3)cc2)n1 [Compound 14, (S)-2-(4-((5-cyclopropylpyridin-2-yl)oxy)phenyl)-6-(((2-oxopyrrolidin-3-yl)amino)-methyl)pyrimidine-4-carboxamide] | 1.41 ± 0.231 | 3.39 ± 1.15 | –
2 | NC(=O)c1cc(CN[C@H]2CCNC2=O)nc(-c2ccc(Oc3ccc(Cl)cc3F)cc2)n1 [Compound 15] | 0.041 ± 0.006 | 0.065 ± 0.01 | –
3 | NC(=O)c1cc(CN2CCC[C@H]2C(N)=O)nc(-c2ccc(Oc3ccc(C(F)(F)F)cc3)cc2)n1 [Compound 16, (S)-6-((2-carbamoylpyrrolidin-1-yl)methyl)-2-(4-(4-(trifluoro-methyl)phenoxy)phenyl)pyrimidine-4-carboxamide] | – | 0.085 ± 0.012 | –
4 | NC(=O)c1cc(CN[C@H]2CCNC2=O)nc(-c2ccc(Oc3ccc(C(F)(F)F)cc3)cc2)n1 [Compound 20, (S)-6-(((2-oxopyrrolidin-3-yl)amino)methyl)-2-(4-(4-(trifluoromethyl)phenoxy)phenyl)pyrimidine-4-carboxamide] | – | 0.439 ± 0.023 | –
5 | C[C@H](NCc1cc(C(N)=O)nc(-c2ccc(Oc3ccc(C(F)(F)F)cc3)cc2)n1)C(N)=O [Compound 21, (S)-6-(((1-amino-1-oxopropan-2-yl)amino)methyl)-2-(4-(4-(trifluoromethyl)phenoxy)phenyl)pyrimidine-4-carboxamide] | – | 0.042 ± 0.006 | –
6 | CC(C)[C@H](NCc1cc(C(N)=O)nc(-c2ccc(Oc3ccc(C(F)(F)F)cc3)cc2)n1)C(N)=O [Compound 22, (S)-6-(((1-amino-3-methyl-1-oxobutan-2-yl)amino)methyl)-2-(4-(4-(trifluoromethyl)-phenoxy)phenyl)pyrimidine-4-carboxamide] | 0.22 ± 0.034 | 0.2 ± 0.045 | –
7 | NC(=O)c1cc(CN[C@@H](CO)C(N)=O)nc(-c2ccc(Oc3ccc(C(F)(F)F)cc3)cc2)n1 [Compound 23, (S)-6-(((1-amino-3-hydroxy-1-oxopropan-2-yl)amino)methyl)-2-(4-(4-(trifluoromethyl)-phenoxy)phenyl)pyrimidine-4-carboxamide] | 0.145 ± 0.044 | 0.2 ± 0.045 | –
8 | NC(=O)c1cc(CN2C[C@H](O)C[C@H]2C(N)=O)nc(-c2ccc(Oc3ccc(C(F)(F)F)cc3)cc2)n1 [Compound 24, 6-(((2S, 4R)-2-carbamoyl-4-hydroxypyrrolidin-1-yl)methyl)-2-(4-(4-(trifluoromethyl)-phenoxy)phenyl)pyrimidine-4-carboxamide] | 0.342 ± 0.095 | 0.583 ± 0.056 | –
9 | NC(=O)c1cc(CN[C@H]2CCNC2=O)nc(-c2ccc(Oc3ccc(C(F)(F)F)cn3)cc2)n1 [Compound 26, (S)-6-(((2-oxopyrrolidin-3-yl)amino)methyl)-2-(4-((5-(trifluoromethyl)pyridin-2-yl)oxy)phenyl)pyrimidine-4-carboxamide] | 0.662 ± 0.13 | 1.75 ± 0.6 | –
10 | NC(=O)c1cc(CN2CCNC(=O)C2)nc(-c2ccc(Oc3ccc(C(F)(F)F)cc3)cc2)n1 [Compound 27, 6-((3-oxopiperazin-1-yl)-methyl)-2-(4-(4-(trifluoro-methyl)phenoxy)phenyl)pyrimidine-4-carboxamide] | 0.08 ± 0.027 | 0.072 ± 0.008 | –
11 | NC(=O)c1cc(CN2CCNC(=O)C2)nc(-c2ccc(Oc3ccc(C(F)(F)F)cn3)cc2)n1 [Compound 28, 6-((3-oxopiperazin-1-yl)-methyl)-2-(4-((5-(trifluoro-methyl)pyridin-2-yl)oxy)-phenyl)pyrimidine-4-carboxamide] | – | – | 2.45 ± 0.133
12 | O=C1NCC[C@@H]1NCc1cc([C@H](O)CO)nc(-c2ccc(Oc3ccc(OC(F)(F)F)cc3)cc2)n1 [Compound 40, (S)-3-(((6-((S)-1,2-dihydroxyethyl)-2-(4-(4-(trifluoromethoxy)phenoxy)phenyl)pyrimidin-4-yl)methyl)-amino)pyrrolidin-2-one] | 2.68 ± 0.206 | 1.55 ± 0.215 | –
13 | O=C1CN(Cc2cc([C@H](O)CO)nc(-c3ccc(Oc4ccc(OC(F)(F)F)cc4)cc3)n2)CCN1 [Compound 41, (S)-4-((6-(1,2-dihydroxyethyl)-2-(4-(4-(trifluoromethoxy)-phenoxy)phenyl)pyrimidin-4-yl)methyl)piperazin-2-one] | 0.875 ± 0.167 | – | 1.19 ± 0.11
14 | NC(=O)c1cc(CO)nc(C2=CCC(Oc3ccc(C(F)(F)F)cc3)CC2)n1 (stereo not drawn) [Compound 54, 6-(hydroxymethyl)-2-(4-(4-(trifluoromethyl)phenoxy)cyclohex-1-en-1-yl)pyrimidine-4-carboxamide] | – | 0.242 ± 0.023 | –
15 | NC(=O)c1cc(CN[C@@H]2CCNC2=O)nc(C2=CCC(Oc3ccc(C(F)(F)F)cc3)CC2)n1 (stereo partly drawn) [Compound 56, 6-((((R)-2-oxopyrrolidin-3-yl)amino)methyl)-2-(4-(4-(trifluoromethyl)phenoxy)cyclohex-1-en-1-yl)pyrimidine-4-carboxamide] | 0.117 ± 0.01 | 0.544 ± 0.062 | –
16 | C[C@H](NCc1cc(C(N)=O)nc(C2=CCC(Oc3ccc(C(F)(F)F)cc3)CC2)n1)C(N)=O (stereo partly drawn) [Compound 57] | 0.175 ± 0.039 | 0.557 ± 0.049 | –
17 | NC(=O)c1cc(CN[C@@H](CO)C(N)=O)nc(C2=CCC(Oc3ccc(C(F)(F)F)cc3)CC2)n1 (stereo partly drawn) [Compound 58, 6-((((S)-1-amino-3-hydroxy-1-oxopropan-2-yl)amino)-methyl)-2-(4-(4-(trifluoromethyl)-phenoxy)cyclohex-1-en-1-yl)pyrimidine-4-carboxamide] | 0.524 ± 0.161 | 1.47 ± 0.091 | –
18 | NC(=O)c1cc(CN2CCNC(=O)C2)nc(C2=CCC(Oc3ccc(C(F)(F)F)cc3)CC2)n1 (stereo not drawn) [Compound 59, 6-((3-oxopiperazin-1-yl)-methyl)-2-(4-(4-(trifluoro-methyl)phenoxy)cyclohex-1-en-1-yl)pyrimidine-4-carboxamide] | 0.059 ± 0.018 | – | 0.07 ± 0.003
19 | CC1(C)C(=O)NCCN1Cc1cc(C(N)=O)nc(-c2ccc(Oc3ccc(C(F)(F)F)cn3)cc2)n1 [Compound 60, 6-((2,2-dimethyl-3-oxopiperazin-1-yl)methyl)-2-(4-((5-(trifluoromethyl)pyridin-2-yl)oxy)phenyl)pyrimidine-4-carboxamide] | – | > 20 | –
20 | CC1(C)C(=O)NCCN1Cc1cc(C(N)=O)nc(-c2ccc(Oc3ccc(C(F)(F)F)cc3)cc2)n1 [Compound 61, 6-((2,2-dimethyl-3-oxopiperazin-1-yl)methyl)-2-(4-(4-(trifluoromethyl)phenoxy)-phenyl) pyrimidine-4-carboxamide] | – | – | 0.627 ± 0.022
21 | NC(=O)c1cc(CN2CC(=O)NC(=O)C2)nc(-c2ccc(Oc3ccc(C(F)(F)F)cc3)cc2)n1 [Compound 62, 6-((3,5-dioxopiperazin-1-yl)methyl)-2-(4-(4-(trifluoro-methyl)phenoxy)phenyl)pyrimidine-4-carboxamide] | – | 0.205 ± 0.006 | –
22 | NC(=O)c1cc(CN2CC[C@@H](O)[C@H]2C(N)=O)nc(-c2ccc(Oc3ccc(C(F)(F)F)cc3)cc2)n1 [Compound 65, 6-(((2S,3R)-2-carbamoyl-3-hydroxypyrrolidin-1-yl)methyl)-2-(4-(4-(trifluoromethyl)-phenoxy)phenyl)pyrimidine-4-carboxamide] | 0.046 ± 0.009 | 0.094 ± 0.008 | –
